Laboratory results reported in ChEMBL document CHEMBL5728313, “Methods for inhibiting fascin” (2021).

Test: High Throughput Inhibition Assay: A high throughput assay was developed to screen for fascin specific inhibitors. Purified polymerized F-actin with or without fascin were mixed and incubated to allow actin bundle formation. F-actin polymers were then bound to the poly-D-lysine coated plates. After extensive washes, F-actin polymers were visualized by labeling them with Alexa Fluor 488 phalloidin. Four images were taken from each well and the average fiber length was analyzed for each tested compound.

IC50: 4.3 µM
Compound: O=C(Cn1cnc2c(cnn2C2CCS(=O)(O)(O)C2)c1=O)Nc1ccc(Cl)cc1 (stereo unspecified)
